Laboratory results reported in patent publication US20010010827A1, “Method and composition for treatment of headache using magnesium” (priority 1991, published 2001).
Read-outs that look alike come from different tables or passages of the source.

Experiments:
[1] = Oral glucose loading: ionized, total and intracellular free magnesium; assay type: in vivo, human; conditions: oral glucose 100 gm
Description: Ionized magnesium, serum total magnesium, and plasma renin activity (PRA) in fasting normotensive (NT) (n=20), essential hypertensive (n=28) subjects was monitored before, and 60, 90, 120 and 180 minutes after oral glucose loading (100 gm). Results were compared to intracellular free magnesium values obtained at the same time intervals as measured using ^31P-NMR spectroscopy.

[2] = test system: headache (migraine, cluster, chronic migrainous, chronic tension-type)
Source text: Forty consecutive patients who presented to the headache clinic with a moderate or severe headache of any type (4 or higher on a verbal 1 to 10 scale) were enrolled in this study after an informed consent. […] Patients with renal, cardiac, diabetic or other medical problems were excluded. The international Headache Society classification was used to diagnose all patients.^23 Age-matched healthy volunteers served as control subjects.
Immediately prior to the magnesium infusion a blood sample of serum IMg^2+, total magnesium (TMg) and ionized calcium (ICa^2+) was drawn under anaerobic conditions. The laboratory personnel (B.T.A., B.M.A.) were blinded as the blood samples were not accompanied by any clinical information, while the clinician administering the infusion (A.M.) received test results several days after the completion of the evaluation. Serum levels of IMg^2+ and ICa^2+ were measured using ion-selective electrodes with a NOVA Biomedical Stat Profile 8 Analyzer.^16-18 The lower limit of normal for IMg^2+ levels in this study was 0.55/mmol/L. The normal range for the ICa^2+/IMg^2+ ratio is 1.92-2.08.
Headache intensity was measured on a verbal 1 to 10 scale prior to and 15 minutes after the infusion. A greater than 50% reduction of pain intensity was considered a positive response. The recurrence or worsening of a headache within the following 24 was determined in a telephone interview on the following day. The clinical response to the IMg^2+ levels was correlated. The correlation was considered to be positive if patients with a normal IMg^2+ level (≧0.55 mmol/L) had no relief or less than 24 hrs of relief. In patients with low IMg^2+ levels (<0.55 mmol/L), a correlation was considered positive only if relief lasted for more than 24 hrs.
Mean values±S.E.M. were calculated and compared for statistical significance by a Student's t-test, ANOVA with Scheffe's contrast test, analysis of co-variance for age, and linear regression analysis, where appropriate. Chi-Square tests were also utilized where appropriate. A p-value of less than 0.05 was considered significant.

[3] = test system: chronic migrainous headache; assay: Therapies tried in patient #27 for two months before the MgSO4 infusion; assay type: in vivo, human; conditions: acetaminophen 1000 mg or ibuprofen 400 mg four times/day, nabumetone 1000 mg/day for two weeks, cyproheptadine 4 mg nightly for two weeks
Description: Long-term results in patients with intermittent migraine attacks is difficult to gauge because of the variable frequency of migraines in these patients. Responses in patients with chronic headaches also varied. […] Various therapists (i.e., acetaminophen—1000 mg or ibuprofen—400 mg-four times/day; nabumetone— 1000 mg/day for two weeks; cyproheptadine—4 mg nightly for two weeks; physical exercise) were tried in this patient for two months prior to the infusion with no relief.

[4] = of the 40 patients given IV MgSO4

Question: With `O=C[C@H](O)[C@@H](O)[C@H](O)[C@H](O)CO` [glucose] as the compound, how does the “total magnesium values after glucose loading” value [1] read?
Answer: did not differ

Question: And the “ionized Mg2+ levels after oral glucose loading” value ([1]; elevated from 0.60±0.02, ion selective electrode, p<0.01)?
Answer: 0.64 ± 0.02 mM

Question: What about the “intracellular Mg after oral glucose loading” value ([1]; lowered from 219± 12, 31P-NMR, p<0.01) of the same compound?
Answer: 193 ± 13 µM

Question: What does the source list for `O=S(=O)([O-])[O-].[Mg+2]` [MgSO4, magnesium sulfate]?
Answer: other side effects ([2]; 40 patients, IV infusion): No other side effects were noted; side effect during the IV infusion ([2]; almost all patients): flushed feeling; duration of relief ([2]; cluster headache, repeat infusions of 1 to 3 gram each): approximately 48 hours; Return Within 24 hr ([2]; individual chronic tension headache patients, recurrence or worsening of headache within 24 hr): N; Response ([2]; individual cluster headache patients, 1 g MgSO4 IV over 5 min, positive = greater than 50% reduction of pain intensity 15 min after infusion): Y; onset of improvement of headache ([2]; most patients): began to improve before the end of infusion; duration of relief ([2]; most patients whose headache returned within 24 hours): 1 to 2 h; number of patients with persistent relief of headache beyond 24 hours ([2]; of the 32 initial responders): 18 patients; number of patients with at least a 50% initial reduction of pain intensity [2, 4]: 32 patients; patients with at least a 50% initial reduction of pain intensity [2, 4]: 80%; duration of relief ([2]; patient #17, chronic cluster headache, after the initial and each of three subsequent infusions): 28 h; persistence of response ([2]; patient #27 (youngest patient), single infusion): positive response to Mg that persists five months later; duration of relief ([2]; patient #28, chronic migrainous headache): 24 h; outcome of cluster episode ([2]; patients #18 and #19, episodic clusters, single infusion): aborted the entire cluster episode; time to return of headaches ([2]; patients #24 and #25, episodic clusters): ≤ 24 h; duration of relief ([2]; the other four cluster headache patients): two-seven; patients with complete elimination of pain ([2]; within 5 min of infusion): 80%

Question: Which relief of headache [3] does the source give for `CC(C)Cc1ccc(C(C)C(=O)O)cc1` (centres unmarked) [ibuprofen] here?
Answer: no relief

Question: For `COc1ccc2cc(CCC(C)=O)ccc2c1` [nabumetone], which relief of headache [3] is on record?
Answer: no relief

Question: Which relief of headache [3] does the source give for `CC(=O)Nc1ccc(O)cc1` [acetaminophen] here?
Answer: no relief
